This is an account of results in publication PMC11964921 (npj Drug Discovery, 2025).

Experiment [1] concerns M. tuberculosis multi-drug-resistant clinical strains. Description: microbe, parasite or virus in culture. In kind it is cell-based. The note with it: for MIC: Mycobacterium tuberculosis.
Experiment [2] has as its system M. tuberculosis H37Rv-ΔcydAB. Also noted: species or system mouse (Balb/cBy). The note with it: mouse, in vivo.

With `CCc1nc2ccc(Cl)cn2c1C(=O)NCc1ccc(C2CC3(C2)CN(S(=O)(=O)C(F)(F)F)C3)cc1` [JNJ-2901], the MIC in experiment [1] (all 18 clinical strains) is under 1 nM; in experiment [1] (all 18 clinical strains, Middlebrook 7H9 medium) it was at most 0.5 ng/mL; in experiment [1] (strain 661706043123, resistant to INH, PAS) it was at most 0.5 ng/mL; in experiment [1] (strain 661710016056, resistant to INH, S, PAS), at most 0.5 ng/mL; in experiment [1] (strain 661904036200, resistant to INH, PAS), at most 0.5 ng/mL; in experiment [1] (strain 661906047849, resistant to INH, RIF, S, PZA, ETH, PAS, EMB, CYC), at most 0.5 ng/mL. In addition, the MIC in experiment [1] (strain 661907010966, resistant to INH, RIF, S, PAS, EMB, PZA, CYC, AMK, KAN, CAP, ETH) is at most 0.5 ng/mL; in experiment [1] (strain 661908012994, resistant to INH, RIF, S, PZA, PAS, ETH), at most 0.5 ng/mL; in experiment [1] (strain 661911031781, resistant to INH, RIF, S, PAS, CYC, ETH, KAN), at most 0.5 ng/mL; in experiment [1] (strain 661911038007, resistant to INH, RIF, S, PAS) it was at most 0.5 ng/mL; in experiment [1] (strain 662001006107, resistant to INH, RIF, PZA, S, PAS, CYC, ETH, FQL) it was at most 0.5 ng/mL; in experiment [1] (strain 662001039167, resistant to INH, RIF, S, PAS, EMB, PZA, CYC, KAN) it was at most 0.5 ng/mL. Further, the MIC in experiment [1] (strain 662001071666, resistant to INH, RIF, S, PAS, PZA, EMB, ETH) is at most 0.5 ng/mL; in experiment [1] (strain 662003052840, resistant to INH, EMB, PZA, S, CYC, PAS, ETH), at most 0.5 ng/mL; in experiment [1] (strain 662004032055, resistant to INH, RIF, S, PAS, ETH), at most 0.5 ng/mL; in experiment [1] (strain 662008015398, resistant to INH, RIF, S, PAS, EMB, PZA, ETH), at most 0.5 ng/mL; in experiment [1] (strain 662012006551, resistant to INH, PAS, PZA, ETH (LNZ geno)), at most 0.5 ng/mL; in experiment [1] (strain 662101040833, resistant to INH, RIF, PZA, S, PAS, EMB, ETH, KAN, CAP, AMK, CYC) it was at most 0.5 ng/mL. Also, the MIC in experiment [1] (strain 662105041666, resistant to INH, RIF, S, PZA, EMB, FQL, ETH, CYC, PAS) was at most 0.5 ng/mL; in experiment [1] (strain 662108038389, resistant to INH, RIF, S, PAS) it was at most 0.5 ng/mL. Also, in experiment [1] (clinical multidrug-resistant M. tuberculosis strains), the “concentration of growth inhibition (in words)” value is listed as “sub-nanomolar”. The “reduction in bacterial burden / lung CFU” value in experiment [2] is given as 4 log.
